Measurements published in patent US9006388B2, “Covalent attachment of ligands to nucleophilic proteins guided by non-covalent” (priority 2003, dated 2015).

Tests used:
[1] = target: T1, gp120 (MN strain) (Human immunodeficiency virus type 1 group M subtype B, UniProt P05877); test: Irreversible hapten CAL binding by gp120; set-up: species or system HIV
T1 construct: purchased

[2] = tested on: monoclonal anti-VIP IgG clone c23.5; test: Covalent CAL binding by monoclonal anti-VIP IgG c23.5
[3] = target: T2, trypsin (Sus scrofa, UniProt P00761); test: Irreversible hapten CAL binding by trypsin; set-up: species or system porcine; conditions: hapten CAL 100 μM
T2 construct: purchased Sigma type IX

[4] = tested on: IgG; format: biochemical, human
[5] = tested on: murine splenocytes; test: Hapten CAL I reactivity with spleen cells (microscopy, flow cytometry); format: cell-based, BALB/c mouse
Description: BCR covalent reaction with hapten CALs. hapten CALs such as compound I (FIG. 19) react irreversibly with nucleophilic sites in conventional serine proteases and Abs (3,35,44-47). Methods for synthesis of this compound, preparation of B cells from mice, flow cytometric analysis of binding to the cells and electrophoretic measurement of covalent binding to Ig subunits are described in refs 3,35,48. To evaluate the nucleophilic reactivity expressed on the surface of B cells in the preimmune repertoire (viz., the repertoire developed spontaneously without purposeful immunological challenge), viable splenocytes from BALB/c mice were treated with hapten CAL I. The control compound II is identical in structure to hapten CAL I, except that the phosphonate group is not esterified, which results in loss of covalent reactivity with nucleophilic residues (3,35). […] Flow cytometry confirmed the microscopy results. […] In 3 repeat experiments, the proportion of hapten CAL I-stained cells that were positive for the B cell marker CD19 was 82±4% (FIG. 20B). […] Most of the CAL fluorescence was restricted to the surfaces of the B cells (FIG. 20F).

[6] = tested on: nine purified proteins; test: Screening of purified proteins for irreversible hapten CAL binding; conditions: protein 1 μM, CAL 0.5 mM, 16 h, 37° C.
[7] = tested on: human IgG; format: binding
[8] = tested on: human polyclonal IgG HS-2; test: Irreversible inhibition of HS-2 IgG-catalyzed [Tyr10-125I]-VIP cleavage; format: biochemical; conditions: IgG 2 μM preincubated 16 h, unreacted CAL removed
[9] = target: calmodulin (Homo sapiens, UniProt P0DP23); test: Irreversible CAL binding by calmodulin
[10] = tested on: plasma proteins; test: CAL reaction in the presence of human plasma; format: binding; conditions: human plasma 1% v/v, CAL 10 μM, 1 h
[11] = flow cytometry, 100 μM, 4 hours

T2 sequence (P00761 9-231): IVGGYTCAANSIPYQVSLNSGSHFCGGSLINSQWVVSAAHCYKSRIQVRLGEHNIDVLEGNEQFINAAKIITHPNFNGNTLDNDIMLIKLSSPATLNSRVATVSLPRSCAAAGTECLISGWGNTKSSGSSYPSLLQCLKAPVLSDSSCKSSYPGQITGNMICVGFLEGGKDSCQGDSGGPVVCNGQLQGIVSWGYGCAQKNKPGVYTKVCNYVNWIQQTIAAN

Compound | Kd [1] [µM] | first-order rate constant of covalent adduct formation k2 ([1]; pH 7.4, 37° C.) [min⁻¹] | Vapp values for the two subunits of anti-VIP Ab [2] | velocity of covalent I adduct formation with trypsin [3] [AAU/min] | inhibition of IgG-catalyzed peptide-MCA cleavage [4] | loss of viability of cells (trypan blue exclusion) [5] | proportion of hapten CAL I-stained cells positive for CD19 ([5]; 3 repeat experiments) [%] | cells displaying intense staining ([5]; UV microscope, 400 lymphocytes counted, N 3) | cells with fluorescence intensities exceeding compound II-treated cells [5, 11] | subpopulation with very high fluorescence intensity [5, 11] [%] | proteins forming irreversible adducts [6] | velocity for IgG relative to trypsin [7] [fold] | velocity of covalent I adduct formation with IgG [7] [AAU/min] | IC50 [8] [µM] | second-order rate constant for reaction with calmodulin ([9]; calmodulin 1 μM, 3 10 μM or 1 0.5 mM, 37° C.) [M⁻¹ s⁻¹] | reaction with plasma proteins [10] | inhibition of 3-calmodulin binding ([9]; VIP 100 μM, 3 10 μM) [%]
N=C(N)c1ccc(C(NC(=O)CCCCCNC(=O)CCCC[C@@H]2SC[C@@H]3NC(=O)N[C@@H]32)P(=O)(Oc2ccccc2)Oc2ccccc2)cc1 (some centres unmarked) [hapten CAL I, Diphenyl N-(6-biotinamidohexanoyl)amino(4-amidinophenyl)methanephosphonate] | 710 ± 500 | 0.015 ± 0.007 | nearly equivalent | 11.9±0.6 | inhibited | No loss of viability | 82±4 | 11±2 | Seventy nine | 14 | Seven of the nine | 14.5 | 172.7±14.2 | 36 | 0.00353 ± 0.000283 | little or no adduct formation | 
VIP: 28 amino acid peptide, devoid of the phosphonate group [reference compound] |  |  |  |  |  |  |  |  |  |  |  |  |  |  |  |  | 65
